System: ATPase activity endogenous to L929 cell lysate
Experiment: Detergent inhibition of ATPase endogenous to L929 cell lysate (ATP remaining by luciferase luminescence, 22° C.)
Assay type: biochemical
Design: key to Relative ATPase Activity, slope det/slope lysate: slope with detergent / slope without; ≥1.0 = 100% activity, 0.5 = 50%
Summary of the method: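 L929 lysate (1.5×10^5 cells/ml, four freeze–thaw cycles) held with detergent at final 1.0, 0.5, 0.1 or 0.05% at 22° C; remaining ATP read over time with luciferase-luciferin reagent (100 μM luciferin, 10 mM MgSO4, pH 7.5). Relative ATPase activity = slope of log % ATP remaining vs time with detergent ÷ slope for lysate-only control.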

[1] = Example 2, 0.002% detergent, 5 min
[2] = Example 2, 0.002% detergent, 75 min
[3] = Example 2, 0.002% detergent, 169 min
[4] = Example 2, 0.002% detergent, 222 min
[5] = Example 2, 0.002% detergent, 260 min
[6] = Example 2, 0.01% detergent, 5 min
[7] = Example 2, 0.01% detergent, 75 min
[8] = Example 2, 0.01% detergent, 169 min
[9] = Example 2, 0.01% detergent, 222 min
[10] = Example 2, 0.01% detergent, 260 min

CCCCCCCCCCCCOS(=O)(=O)[O-].[Na+] [SDS, Sodium dodecyl sulfate]
Relative ATPase Activity, slope det/slope lysate (0.002 percent detergent): 1.010 | Slope (log percent ATP remaining vs time in minutes) (0.002 percent detergent): −0.0064 | Relative ATPase Activity, slope det/slope lysate (0.01 percent detergent): 0.702 | Slope (log percent ATP remaining vs time in minutes) (0.01 percent detergent): −0.00385 | Average Relative Light Unit Values (0.05% detergent, 5 min): 1181.17 rlu | Percent ATP Remaining (0.05% detergent, 5 min): 100% | Average Relative Light Unit Values (0.05% detergent, 75 min): 1060.03 rlu | Percent ATP Remaining (0.05% detergent, 75 min): 89.7% | Average Relative Light Unit Values (0.05% detergent, 169 min): 949.7 rlu | Percent ATP Remaining (0.05% detergent, 169 min): 80.4% | Average Relative Light Unit Values (0.05% detergent, 222 min): 921.86 rlu | Percent ATP Remaining (0.05% detergent, 222 min): 78.0% | Average Relative Light Unit Values (0.05% detergent, 260 min): 803.0 rlu | Percent ATP Remaining (0.05% detergent, 260 min): 68.0% | Relative ATPase Activity, slope det/slope lysate (0.05 percent detergent): 0.105 | Slope (log percent ATP remaining vs time in minutes) (0.05 percent detergent): −0.0006 | Average Relative Light Unit Values (0.1% detergent, 5 min): 0.31 rlu | Average Relative Light Unit Values (0.1% detergent, 75 min): 0.18 rlu | Average Relative Light Unit Values (0.1% detergent, 169 min): 0.21 rlu | Average Relative Light Unit Values (0.1% detergent, 222 min): 0.26 rlu | Average Relative Light Unit Values (0.1% detergent, 260 min): 0.34 rlu | Average Relative Light Unit Values (0.5% detergent, 5 min): 0.00 rlu | Average Relative Light Unit Values (0.5% detergent, 75 min): 0.00 rlu | Average Relative Light Unit Values (0.5% detergent, 169 min): 0.02 rlu | Average Relative Light Unit Values (0.5% detergent, 222 min): 0.00 rlu | Average Relative Light Unit Values (0.5% detergent, 260 min): 0.00 rlu | Average Relative Light Unit Values (1.0% detergent, 5 min): 0.01 rlu | Average Relative Light Unit Values (1.0% detergent, 75 min): 0.00 rlu | Average Relative Light Unit Values (1.0% detergent, 169 min): 0.01 rlu | Average Relative Light Unit Values (1.0% detergent, 222 min): 0.00 rlu | Average Relative Light Unit Values (1.0% detergent, 260 min): 0.01 rlu | Average Relative Light Unit Values [1]: 5773.39 rlu | Percent ATP Remaining [1]: 100.00% | Average Relative Light Unit Values [2]: 1574.34 rlu | Percent ATP Remaining [2]: 27.27% | Average Relative Light Unit Values [3]: 278.67 rlu | Percent ATP Remaining [3]: 4.83% | Average Relative Light Unit Values [4]: 236.28 rlu | Percent ATP Remaining [4]: 4.09% | Average Relative Light Unit Values [5]: 128.58 rlu | Percent ATP Remaining [5]: 2.23% | Average Relative Light Unit Values [6]: 13116.20 rlu | Percent ATP Remaining [6]: 100.00% | Average Relative Light Unit Values [7]: 10753.03 rlu | Percent ATP Remaining [7]: 48.62% | Average Relative Light Unit Values [8]: 12051.63 rlu | Percent ATP Remaining [8]: 25.80% | Average Relative Light Unit Values [9]: 11822.03 rlu | Percent ATP Remaining [9]: 14.20% | Average Relative Light Unit Values [10]: 11900.73 rlu | Percent ATP Remaining [10]: 8.79% | times more ATP present in the sample after four hours when the detergent was present than when it was absent (SDS 0.05%, deoxycholate 0.5% and 0.1%): about three to about twenty | concentrations which resulted in a 25% or greater decrease in the relative ATPase activity (compared to reactions in the absence of detergent): ≥ 0.01%
